Like-named read-outs stand apart in the source and are kept apart here.
Key:
[1] = tested on: Breast carcinoma MDA-MB-453; assay: MTT proliferation assay, breast carcinoma; type: cell-based; settings: Homo sapiens, read-out: Mean Percent Inhibition of Growth; for inhibition at 0.625 µM: disulfiram 0.625 μM; for inhibition at 1.25 µM: disulfiram 1.25 μM; for inhibition at 2.5 µM: disulfiram 2.5 μM; for inhibition at 5 µM: disulfiram 5.0 μM
Experimental: Human malignant cell lines were obtained from American Type Tissue Culture Collection (Rockville, Md.). Melanoma cells lines CRL 1585 and 1619 were cultured in RPMI 1640 (GIBCO-BRL, Life Technologies, Grand Island, N.Y.) with 10% FBS and passed with nonenzymatic Cell Dissociation Solution® (Sigma). The prostate adenocarcinoma cell line CRL 1435 (PC-3) was also cultured in RPMI 1640 with 10% FBS but passed with 0.05% trypsin and 0.53 mM EDTA. The squamous lung carcinoma NCI-H520 and the adenosquamous lung carcinoma NCI-H596 cell lines were grown in RPMI 1640 supplemented with 10% FBS, 10 mM HEPES and 1.0 mM sodium pyruvate and passed with trypsin/EDTA. The small cell lung carcinoma NCI-H82 was cultured as a suspension in RPMI 1640 with 10% FBS. All of the above were grown in a 37° C. humidified environment containing 5% CO2/air. The breast carcinoma cell line MDA-MB-453 was grown in a 37° C. humidified environment with free gas exchange with atmospheric air using Leibovitz's L-15 medium with 2 mM L-glutamine and 10% FBS and was passed with trypsin/EDTA.
The effect of disulfiram (0.15 to 5.0 μM), diethyldithiocarbamate (DDC, 1.0 μM) or PDTC (0.625 to 5.0 μM) on proliferation of malignant cell lines was studied in cultures stimulated with 10% FBS. Cell numbers were quantitated 24-72 hours later. In some experiments disulfiram or PDTC were added immediately after cells were plated. In other experiments, cells were plated and allowed to grow for 24-72 hours before fresh media with disulfiram or PDTC was added, and cell numbers were assayed 24-72 hours later. Synergy was studied between disulfiram and N,N′-bis(2-chloroethyl-N-nitrosourea (carmustine or BCNU, 1.0 to 1,000 μM) or cisplatin (0.1 to 100 μg/ml) added to medium. The effect of metals on disulfiram was studied with 0.2 to 10 μM copper (provided as CuSO4), zinc (as ZnCl2), silver (as silver lactate) or gold (as HAuCl4.3H2O) ions added to growth medium. No pH changes occurred with addition of metal salts to culture medium. To provide a biologically relevant source of copper, in some experiments medium was supplemented with human ceruloplasmin at doses replicating low and high normal adult serum concentrations (250 and 500 μg/ml).
Proliferation of cultured cells was quantitated using a previously reported calorimetric method based upon metabolic reduction of the soluble yellow tetrazolium dye 3-[4,5-dimethylthiazol]-2yl-2,5-diphenyl tetrazolium bromide (MTT) to its insoluble purple formazan by the action of mitochondrial succinyl dehydrogenase (See, e.g., S. J. Hirst, et al., “Quantifying proliferation of cultured human and rabbit airway smooth muscle in response to serum and platelet derived growth factor,” Am. J. Respir. Cell Mol. Biol. 7:574-581 (1992); R. Dashtaki, et al. R., supra; S. S. Brar, et al., “Requirement for reactive oxygen species in serum-induced and platelet-derived growth factor-induced growth of airway smooth muscle,” J. Biol. Chem. 274:20017-20026 (1999)). This assay empirically distinguishes between dead and living cells. For proliferation studies, cells were seeded into 24-well uncoated plastic plates (Costar) at 50,000 cells per well and cultured with respective media and mitogens. After 24-96 hours, medium was removed, cells were washed twice with 1 ml of sterile Dulbecco's modified phosphate buffered saline without Ca^2+ or Mg^2+ (DPBS), the medium was replaced with 1 ml/well fresh medium containing 100 μg/ml MTT, and plates were incubated an additional hour. MTT-containing medium was removed, 0.5 ml dimethylsulfoxide (DMSO) was added to each well, and the absorbance of the solubilized purple formazan dye was measured at 540 nm. A total of 4-6 wells were studied at each treatment condition. Preliminary studies were performed with 50-200 μg/ml MTT incubated for 15 minutes to 3 hours to determine the optimum concentration and incubation time at which the rate of conversion was linear and proportional to the number of cells present. […]

M1619 melanoma cells = assay: Apoptosis by TdT 3'-OH fluorescein end-labeling of DNA fragments; type: cell-based, human; settings: 5 μM disulfiram; 15 hours
Experimental: To determine whether disulfiram induced apoptosis, cells grown to confluence on 35 mm Petri dishes or on glass slides were treated with disulfiram or DMSO as vehicle. Apoptosis was studied by terminal deoxynucleotidyl transferase (TdT) dependent 3′-OH fluorescein end-labeling of DNA fragments, using a Fluorescein-FragEL™ DNA fragmentation detection kit (Oncogene Research Products, Cambridge, Mass.). Apoptosis was also studied by visually assessing endonuclease dependent DNA fragmentation on ethidium bromide-stained agarose gels.
In FIG. 5A, M1619 melanoma cells treated with DMSO vehicle. In FIG. 5B, M1619 melanoma cells treated with 5 μM disulfiram. […] Cells were grown to confluence on 35 mm Petri dishes or on glass slides and treated for 15 hours with disulfiram or DMSO as vehicle. Apoptosis was studied by terminal deoxynucleotidyl transferase (TdT) dependent 3′-OH fluorescein end-labeling of DNA fragments, using a Fluorescein-FragEL™ DNA fragmentation detection kit (Oncogene Research Products, Cambridge, Mass.).

[2] = section 'Treatment after 24 hours' (breast grown 48 hours), additional 48 hours
[3] = treatment initially, after 48 hours, 10% FBS

CCN(CC)C(=S)SSC(=S)N(CC)CC [Disulfiram, tetraethylthiuram disulfide] showed an inhibition at 0.625 µM [1, 2] of 26 ± 5%, an inhibition at 0.625 µM [1, 3] of 69 ± 4% and an inhibition at 1.25 µM [1, 2] of 26 ± 2%. It also gave an inhibition at 1.25 µM [1, 3] of 94 ± 2%, an inhibition at 2.5 µM [1, 2] of 39 ± 2% and an inhibition at 2.5 µM [1, 3] of 100%. For the same compound, the inhibition at 5 µM [1, 2] was 46 ± 4%, the inhibition at 5 µM [1, 3] was 100% and the “3'-OH fluorescein end-labeling of DNA fragments (apoptosis)” value (M1619 melanoma cells) was “markedly increases”.

Reference: US6548540B2, “Method of treating cancer using dithiocarbamate derivatives” (Charlotte-Mecklenburg Hospital Authority, priority 1998, dated 2003)
